The text below walks through data of patent publication US11485742B2, “2-azaspiro[3.4]octane derivatives as M4 agonists” (NOVARTIS AG, priority 2019, dated 2022).

In test [1] the target is T1, human cloned CHRM4 receptor (Homo sapiens, UniProt P08173).
T1 construct: expressed in transfected cells; host or cells: CHO-K1 (M4_CHO)
T1 sequence (P08173 1-479): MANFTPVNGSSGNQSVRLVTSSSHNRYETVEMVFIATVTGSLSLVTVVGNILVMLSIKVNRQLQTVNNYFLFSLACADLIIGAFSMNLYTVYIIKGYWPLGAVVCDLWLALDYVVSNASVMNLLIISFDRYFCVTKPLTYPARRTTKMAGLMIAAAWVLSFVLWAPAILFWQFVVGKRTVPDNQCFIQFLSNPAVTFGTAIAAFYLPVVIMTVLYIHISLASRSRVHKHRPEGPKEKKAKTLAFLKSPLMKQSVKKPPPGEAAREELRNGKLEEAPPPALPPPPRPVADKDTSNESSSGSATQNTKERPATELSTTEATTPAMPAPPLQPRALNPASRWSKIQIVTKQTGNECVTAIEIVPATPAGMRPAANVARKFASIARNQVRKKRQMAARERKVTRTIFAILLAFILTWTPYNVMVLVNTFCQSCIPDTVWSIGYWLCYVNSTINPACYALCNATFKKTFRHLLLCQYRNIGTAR
Briefly: CHRM4 Ca++ Flux Assay (M4_CHO cells, agonist mode). The format is cell-based. As to conditions: for Emax / M4 FDSS PA %: Percent Activity (PA); for Emax: read-out: M4 FDSS PA %; for EC50: geometric mean if tested more than once, read-out: M4 FDSS EC50. The procedure, abridged: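 CHO-K1 cells stably expressing human M4 were dye-loaded, then held 60 min at RT in Ca/Mg-free HBSS buffer with 20 μM ATP. Ca++ traces were recorded over 3 min after an 11-point compound series in triplicate, agonist mode, with a four-parameter fit. Percent activity is relative to the carbachol EC100; repeat tests are geometric means.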

In test [2] the target is T2, Cloned human M1 receptor (CHRM1) (Homo sapiens, UniProt P11229).
T2 construct: expressed in transfected cells; host or cells: HEK293
T2 sequence (P11229 1-460): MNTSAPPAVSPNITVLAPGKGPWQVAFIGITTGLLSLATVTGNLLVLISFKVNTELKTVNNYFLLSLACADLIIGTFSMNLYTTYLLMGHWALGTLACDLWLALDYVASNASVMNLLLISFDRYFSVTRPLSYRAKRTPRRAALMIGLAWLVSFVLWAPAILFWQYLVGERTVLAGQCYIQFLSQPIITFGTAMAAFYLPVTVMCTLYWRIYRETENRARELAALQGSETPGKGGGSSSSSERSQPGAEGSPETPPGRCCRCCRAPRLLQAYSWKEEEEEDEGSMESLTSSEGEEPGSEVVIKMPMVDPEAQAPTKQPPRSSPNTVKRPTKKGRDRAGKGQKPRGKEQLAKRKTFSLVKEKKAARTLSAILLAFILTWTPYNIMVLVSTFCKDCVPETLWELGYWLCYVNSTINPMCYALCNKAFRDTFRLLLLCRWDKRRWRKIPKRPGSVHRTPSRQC
Briefly: CHRM1 Ca++ Flux Assay (HEK293 M1 cells, agonist mode). The format is cell-based. Particulars: for Emax / M1 FDSS PA %: Percent Activity (PA); for Emax: read-out: M1 FDSS PA %; for EC50: geometric mean if tested more than once, read-out: M1 FDSS EC50. An outline of the steps: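 HEK293 cells stably expressing human M1 were loaded with Ca++ dye, then given compounds (11-point dose, triplicate) in HBSS −Ca/−Mg, 20 mM HEPES. Ca++ flux was read over 3 min (agonist mode). Four-parameter curves were fitted, with activity as percent of carbachol EC100.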

As for `COCCOc1ccc(F)cc1C1CCN([C@@H]2COC3(C2)CN(c2nncs2)C3)CC1` [Example 5S, (S)-7-(4-(5-fluoro-2-(2-methoxyethoxy)phenyl)piperidin-1-yl)-2-(1,3,4-thiadiazol-2-yl)-5-oxa-2-azaspiro[3.4]octane], the Emax in test [1] was determined as 69%; in test [2], 87%. Besides, the EC50 in test [1] amounted to 197 nM; in test [2], 761 nM.
The matching figures for `Fc1ccc(OC[C@H]2COCCO2)c(C2CCN([C@@H]3COC4(C3)CN(c3nnco3)C4)CC2)c1` [Example 1C]: 78%, 72%, 36 nM and 576 nM.
The matching figures for `CC(C)(C#N)COc1ccc(F)cc1C1CCN([C@@H]2COC3(C2)CN(c2nnco2)C3)CC1` [Example 1E, (S)-3-(2-(1-(2-(1,3,4-oxadiazol-2-yl)-5-oxa-2-azaspiro[3.4]octan-7-yl)piperidin-4-yl)-4-fluorophenoxy)-2,2-dimethylpropanenitrile]: 78%, 84%, 27 nM and 563 nM.
In the case of `CC(C)(O)COc1ccc(F)cc1C1CCN([C@@H]2COC3(C2)CN(c2ncns2)C3)CC1` [Example 5C, (S)-1-(2-(1-(2-(1,2,4-thiadiazol-5-yl)-5-oxa-2-azaspiro[3.4]octan-7-yl)piperidin-4-yl)-4-fluorophenoxy)-2-methylpropan-2-ol], in test [1], the Emax is 66% and the EC50 is 110 nM. Further, in test [2], the Emax was 60% and the EC50 is 1600 nM.
Take `Fc1ccc(O[C@@H]2CCOC2)c(C2CCN([C@@H]3COC4(C3)CN(c3nncs3)C4)CC2)c1` [Example 5H, (S)-7-(4-(5-fluoro-2-(((R)-tetrahydrofuran-3-yl)oxy)phenyl)piperidin-1-yl)-2-(1,3,4-thiadiazol-2-yl)-5-oxa-2-azaspiro[3.4]octane]: the results for the Emax in test [1] and in test [2] were 99% and 67%, respectively. Further, the EC50 in test [1] amounted to 15 nM; in test [2] it was 432 nM.
The matching figures for `COCCOc1ccc(F)cc1C1CCN([C@@H]2COC3(C2)CN(c2ncns2)C3)CC1` [Example 5D, (S)-7-(4-(5-fluoro-2-(2-methoxyethoxy)phenyl)piperidin-1-yl)-2-(1,2,4-thiadiazol-5-yl)-5-oxa-2-azaspiro[3.4]octane]: 46%, 60%, 128 nM and 1150 nM.
`c1ccc(C2CCN([C@@H]3COC4(C3)CN(c3nnco3)C4)CC2)c(CC2CCOCC2)c1` [Example 3G, (S)-2-(1,3,4-oxadiazol-2-yl)-7-(4-(2-((tetrahydro-2H-pyran-4-yl)methyl)phenyl)piperidin-1-yl)-5-oxa-2-azaspiro[3.4]octane]: the Emax in test [1] came to 82%; in test [2], 44%. Besides, the EC50 in test [1] was found to be 185 nM; in test [2], 7240 nM.
Turning to `CC(C)(O)[C@H]1C[C@@H](Oc2ccc(F)cc2C2CCN([C@@H]3COC4(C3)CN(c3ncco3)C4)CC2)C1` (single isomer, unassigned) [Example 4U, 2-((1R,3s)-3-(4-fluoro-2-(1-((S)-2-(oxazol-2-yl)-5-oxa-2-azaspiro[3.4]octan-7-yl)piperidin-4-yl)phenoxy)cyclobutyl)propan-2-ol or 2-((1S,3r)-3-(4-fluoro-2-(1-((S)-2-(oxazol-2-yl)-5-oxa-2-azaspiro[3.4]octan-7-yl)piperidin-4-yl)phenoxy)cyclobutyl)propan-2-ol], in test [1], the “M4 FDSS PA %” value turned out to be 62% and the 50% effective concentration (EC50) was found to be 42 nM. In addition, in test [2], the “M1 FDSS PA %” value was 55% and the EC50 was 2240 nM.
Turning to `Fc1ccc(OC[C@@H]2CCOC2)c(C2CCN([C@@H]3COC4(C3)CN(c3nnco3)C4)CC2)c1` [Example 1B, (S)-7-(4-(5-fluoro-2-(((R)-tetrahydrofuran-3-yl)methoxy)phenyl)piperidin-1-yl)-2-(1,3,4-oxadiazol-2-yl)-5-oxa-2-azaspiro[3.4]octane], the Emax in test [1] amounted to 84%; in test [2] it was 72%. Further, the EC50 amounted to 10 nM in test [1] and 598 nM in test [2].
For the compound `Fc1ccc(O[C@H]2CCCOC2)c(C2CCN([C@@H]3COC4(C3)CN(c3nnco3)C4)CC2)c1` (single isomer, unassigned) [Example 2Q, (S)-7-(4-(5-fluoro-2-(((S)-tetrahydro-2H-pyran-3-yl)oxy)phenyl)piperidin-1-yl)-2-(1,3,4-oxadiazol-2-yl)-5-oxa-2-azaspiro[3.4]octane or (S)-7-(4-(5-fluoro-2-(((R)-tetrahydro-2H-pyran-3-yl)oxy)phenyl)piperidin-1-yl)-2-(1,3,4-oxadiazol-2-yl)-5-oxa-2-azaspiro[3.4]octane], in test [1], the “M4 FDSS PA %” value stood at 81% and the EC50 came out at 130 nM. Besides, in test [2], the “M1 FDSS PA %” value amounted to 80% and the EC50 is 2020 nM.
Turning to `Fc1cc(F)c(OCC2COC2)c(C2CCN([C@@H]3COC4(C3)CN(c3nnco3)C4)CC2)c1` [Example 2DD, (S)-7-(4-(3,5-difluoro-2-(oxetan-3-ylmethoxy)phenyl)piperidin-1-yl)-2-(1,3,4-oxadiazol-2-yl)-5-oxa-2-azaspiro[3.4]octane], in test [1], the Emax came out at 64% and the EC50 came out at 155 nM. In test [2], the Emax turned out to be 67% and the EC50 turned out to be 1120 nM.
The matching figures for `Fc1cc(OCC2(F)COC2)c(C2CCN([C@@H]3COC4(C3)CN(c3ncco3)C4)CC2)cc1F` [Example 4P, (S)-7-(4-(4,5-difluoro-2-((3-fluorooxetan-3-yl)methoxy)phenyl)piperidin-1-yl)-2-(oxazol-2-yl)-5-oxa-2-azaspiro[3.4]octane]: 63%, 5 nM, 89% and 334 nM.
The matching figures for `CC(C)(O)COc1ccc(F)cc1C1CCN([C@@H]2COC3(C2)CN(c2nncs2)C3)CC1` [Example 5U, (S)-1-(2-(1-(2-(1,3,4-thiadiazol-2-yl)-5-oxa-2-azaspiro[3.4]octan-7-yl)piperidin-4-yl)-4-fluorophenoxy)-2-methylpropan-2-ol]: 67%, 238 nM, 75% and 2440 nM.
The matching figures for `c1ccc(C2CCN([C@@H]3COC4(C3)CN(c3ncco3)C4)CC2)c(OC2COC2)c1` [Example 4C, (S)-2-(oxazol-2-yl)-7-(4-(2-(oxetan-3-yloxy)phenyl)piperidin-1-yl)-5-oxa-2-azaspiro[3.4]octane]: 80%, 7 nM, 79% and 382 nM.
In the case of `COc1cc(F)ccc1C1CCN([C@@H]2COC3(C2)CN(c2ncns2)C3)CC1` [Example 5E, (S)-7-(4-(4-fluoro-2-methoxyphenyl)piperidin-1-yl)-2-(1,2,4-thiadiazol-5-yl)-5-oxa-2-azaspiro[3.4]octane], in test [1], the Emax is 39% and the EC50 came out at 345 nM. In test [2], the Emax came to 29% and the EC50 was 2580 nM.
